Experimental data published in PMC8286840, “Identifying SARS-CoV-2 antiviral compounds by screening for small molecule inhibitors of Nsp3 papain-like protease” (Biochemical Journal, 2021).
Counter-ions that a name gives are not always drawn. Like-named read-outs stand apart in the source and are kept apart here.

Tests used:
[1] = biological target: T1, SARS-CoV-2 PLpro (nsp3 1564–1878) (Severe acute respiratory syndrome coronavirus 2, UniProt P0DTD1); assay: biochemical; set-up: FRET-quenched peptide (Pro3) cleavage by PLpro, 10 min pre-incubation, slope over 20 min, normalised to no-compound control; details: low concentration screen, read-out: % of control remaining
[2] = biological target: T1, SARS-CoV-2 PLpro (nsp3 1564–1878); assay: biochemical; set-up: FRET-quenched peptide (Pro3) cleavage by PLpro, 10 min pre-incubation, slope over 20 min, normalised to no-compound control; details: high concentration screen, read-out: % of control remaining

CCCCCCCCc1ccc(CCC(N)(CO)CO)cc1 [2-amino-2-[2-(4-octylphenyl)ethyl]-1,3-propanediol hydrochloride]
remaining activity at 1.25 µM ([1]; Well no.=6045): 93.4%
remaining activity at 3.75 µM ([2]; Well no.=6045): 95.1%

O=c1cc(-c2ccccc2)oc2ccc(O)cc12 [6-Hydroxyflavone (6-HF)]
remaining activity at 1.25 µM ([1]; Well no.=8104): 98.9%
remaining activity at 3.75 µM ([2]; Well no.=8104): 98.5%

COc1ccc2c(c1)CC[C@@H]1[C@@H]2CC[C@]2(C)[C@@H](NCCCCCCN3C(=O)C=CC3=O)CC[C@@H]12 [U-73122]
remaining activity at 1.25 µM ([1]; Well no.=1332): 103%
remaining activity at 3.75 µM ([2]; Well no.=1332): 105%

Cc1cccc(C)c1NC1=NCCCS1 [Xylazine]
remaining activity at 1.25 µM ([1]; Well no.=1652): 103%
remaining activity at 3.75 µM ([2]; Well no.=1652): 106%

CCCCCCOc1nsnc1C1=CCCN(C)C1 [Xanomeline (oxalate)]
remaining activity at 1.25 µM ([1]; Well no.=8005): 103%
remaining activity at 3.75 µM ([2]; Well no.=8005): 100%

NCCCCC(=O)O [5-Aminovaleric acid hydrochloride]
remaining activity at 1.25 µM ([1]; Well no.=147): 103%
remaining activity at 3.75 µM ([2]; Well no.=147): 101%

CCCCCN(CCCCC)C(=O)C(CCC(=O)O)NC(=O)c1ccc(Cl)c(Cl)c1 (stereo not drawn) [Lorglumide sodium]
remaining activity at 1.25 µM ([1]; Well no.=820): 102%
remaining activity at 3.75 µM ([2]; Well no.=820): 99.3%

CN(Cc1ccc(C(C)(C)C)cc1)Cc1cccc2ccccc12 [Butenafine]
remaining activity at 1.25 µM ([1]; Well no.=1876): 97.2%
remaining activity at 3.75 µM ([2]; Well no.=1876): 94.3%

O=C(NC1CCNCC1)c1n[nH]cc1NC(=O)c1c(Cl)cccc1Cl [AT-7519]
remaining activity at 1.25 µM ([1]; Well no.=2836): 97.9%
remaining activity at 3.75 µM ([2]; Well no.=2836): 98.3%

O=C(O)C1=CCNCC1 [Isoguvacine hydrochloride]
remaining activity at 1.25 µM ([1]; Well no.=412): 94.2%
remaining activity at 3.75 µM ([2]; Well no.=412): 91.8%

COc1cccc2c1C(=O)c1c(O)c3c(c(O)c1C2=O)C[C@@](O)(C(=O)CO)C[C@@H]3O[C@H]1C[C@H](N)[C@@H](O)[C@H](C)O1 [Epirubicin HCl]
remaining activity at 1.25 µM ([1]; Well no.=5141): 106%
remaining activity at 3.75 µM ([2]; Well no.=5141): 107%

CCc1cc(-c2noc(-c3cc(OC)nc(C4CCCC4)c3)n2)cc(C)c1OC[C@@H](O)CO [Cenerimod]
remaining activity at 1.25 µM ([1]; Well no.=7052): 105%
remaining activity at 3.75 µM ([2]; Well no.=7052): 105%

CN[C@@H](C)C(=O)N[C@H](C(=O)N1CCC[C@H]1C(=O)Nc1snnc1-c1ccccc1)C1CCCCC1 [GDC-0152]
remaining activity at 1.25 µM ([1]; Well no.=6692): 103%
remaining activity at 3.75 µM ([2]; Well no.=6692): 95.6%

CC(C)=CCC[C@](C)(O)[C@H]1CC[C@]2(C)[C@@H]1[C@H](O)C[C@@H]1[C@@]3(C)CC[C@H](O[C@@H]4O[C@H](CO)[C@@H](O)[C@H](O)[C@H]4O)C(C)(C)[C@@H]3CC[C@]12C [Ginsenoside Rh2]
remaining activity at 1.25 µM ([1]; Well no.=6590): 98.4%
remaining activity at 3.75 µM ([2]; Well no.=6590): 102%

CN(C)CC[C@@H](c1ccc(Cl)cc1)c1ccccn1 [Dexchlorpheniramine (maleate)]
remaining activity at 1.25 µM ([1]; Well no.=6653): 103%
remaining activity at 3.75 µM ([2]; Well no.=6653): 101%

CN1CCc2c(cc(O)c(O)c2Cl)C(c2cccc(Cl)c2)C1 (stereo not drawn) [SKF 83565 hydrobromide]
remaining activity at 1.25 µM ([1]; Well no.=1504): 94.9%
remaining activity at 3.75 µM ([2]; Well no.=1504): 97.3%

NC(N)=NC(N)=Nc1cccc(Cl)c1 [1-(m-Chlorophenyl)-biguanide hydrochloride]
remaining activity at 1.25 µM ([1]; Well no.=487): 106%
remaining activity at 3.75 µM ([2]; Well no.=487): 103%

N#C/C(=C\c1ccc(O)c(O)c1)C(=O)N1CCc2ccccc21 [Tyrphostin AG 528]
remaining activity at 1.25 µM ([1]; Well no.=1193): 92.5%
remaining activity at 3.75 µM ([2]; Well no.=1193): 93.3%

COc1cc(C=O)ccc1O [Vanillin]
remaining activity at 1.25 µM ([1]; Well no.=7455): 103%
remaining activity at 3.75 µM ([2]; Well no.=7455): 106%

Nc1ccn([C@@H]2O[C@H](COP(=O)(O)O)[C@@H](O)[C@H]2O)c(=O)n1 [5'-Cytidylic acid]
remaining activity at 1.25 µM ([1]; Well no.=8883): 83.4%
remaining activity at 3.75 µM ([2]; Well no.=8883): 86.7%

CCCN(CCN1CCN(c2ccccc2OC)CC1)C1CCc2ncsc2C1 (stereo not drawn) [ST-836 (hydrochloride)]
remaining activity at 1.25 µM ([1]; Well no.=8445): 89.3%
remaining activity at 3.75 µM ([2]; Well no.=8445): 92.2%

Cc1nnc(NC(=O)c2nc(S(=O)(=O)Cc3ccc(F)cc3)ncc2Cl)s1 [PK11007]
remaining activity at 1.25 µM ([1]; Well no.=6834): 86.8%
remaining activity at 3.75 µM ([2]; Well no.=6834): 87.8%

COc1ccc(CNC(=O)c2sc3nc(C)cc(C)c3c2N)cc1 [VU0152100]
remaining activity at 1.25 µM ([1]; Well no.=5931): 95.9%
remaining activity at 1.25 µM ([1]; Well no.=7293): 91.9%
remaining activity at 3.75 µM ([2]; Well no.=5931): 98.2%
remaining activity at 3.75 µM ([2]; Well no.=7293): 88.9%

COc1ccc2c(c1)CC[C@@H]1[C@@H]2CC[C@]2(C)[C@@H](NCCCCCCN3C(=O)CCC3=O)CC[C@@H]12 [U-73343]
remaining activity at 1.25 µM ([1]; Well no.=1380): 101%
remaining activity at 3.75 µM ([2]; Well no.=1380): 102%

S=C(Nc1ccccc1)Nc1nccs1 [1-Phenyl-3-(2-thiazolyl)-2-thiourea]
remaining activity at 1.25 µM ([1]; Well no.=858): 99.5%
remaining activity at 3.75 µM ([2]; Well no.=858): 96.6%

COC(c1ccccc1)(c1ccccc1)[C@H](Oc1nc(C)cc(C)n1)C(=O)O [Ambrisentan]
remaining activity at 1.25 µM ([1]; Well no.=5270): 94.8%
remaining activity at 1.25 µM ([1]; Well no.=6365): 102%
remaining activity at 3.75 µM ([2]; Well no.=5270): 92.5%
remaining activity at 3.75 µM ([2]; Well no.=6365): 98.8%

O=C(Nc1cc(C(F)(F)F)cc(C(F)(F)F)c1)c1cc(Cl)ccc1O [IKK-2 Inhibitor V]
remaining activity at 1.25 µM ([1]; Well no.=2435): 99.8%
remaining activity at 3.75 µM ([2]; Well no.=2435): 102%

CN(C(=O)Cc1ccc(Cl)c(Cl)c1)C(CN1CCCC1)c1cccc(OCC(=O)O)c1 (stereo not drawn) [ICI 204,448 hydrochloride]
remaining activity at 1.25 µM ([1]; Well no.=1065): 101%
remaining activity at 3.75 µM ([2]; Well no.=1065): 104%

CC(O)C(C)OC(=O)[C@@H]1C[C@@H]2c3cccc4c3c(cn4C(C)C)C[C@H]2N(C)C1 (stereo partly drawn) [LY-53,857 maleate]
remaining activity at 1.25 µM ([1]; Well no.=772): 99.8%
remaining activity at 3.75 µM ([2]; Well no.=772): 97.2%

COc1cc2c(cc1OC)[C@@H](c1ccccc1)CN(C)CC2 [R(-)-SCH-12679 maleate]
remaining activity at 1.25 µM ([1]; Well no.=1231): 101%
remaining activity at 3.75 µM ([2]; Well no.=1231): 104%

CCCCCCCCCC(=O)OCC(CO)OC(=O)CCCCCCCCC (stereo not drawn) [1,2-Didecanoyl-glycerol (10:0)]
remaining activity at 1.25 µM ([1]; Well no.=4474): 101%
remaining activity at 3.75 µM ([2]; Well no.=4474): 95.2%

CCCCC/C=C\C[C@@H]1O[C@H]1C(O)/C=C\C/C=C\CCCC(=O)O (stereo partly drawn) [Hepoxilin B3]
remaining activity at 1.25 µM ([1]; Well no.=4341): 97.9%
remaining activity at 3.75 µM ([2]; Well no.=4341): 96.6%

CC(C)(C)NCC(O)COc1cccc2c1CCC(=O)N2 (stereo not drawn) [Carteolol (hydrochloride)]
remaining activity at 1.25 µM ([1]; Well no.=7623): 101%
remaining activity at 3.75 µM ([2]; Well no.=7623): 97.2%

CC(=O)c1c(C)c2cnc(Nc3ccc(N4CCNCC4)cn3)nc2n(C2CCCC2)c1=O [PD 0332991 (Palbociclib) HCl]
remaining activity at 1.25 µM ([1]; Well no.=4667): 99%
remaining activity at 3.75 µM ([2]; Well no.=4667): 98%
